According to PubChem BioAssay AID256 (DTP/NCI, 2004):
“And” between values parts separate entries of the source, which are not always exact repeats. Equal entries are not always repeated. Toxic doses and inconclusive results are not listed.

Tested on: CD2F1 mice, L1210 leukemia ip, survival T/C
Assay: NCI In Vivo Anticancer Drug Screen. Data for tumor model L1210 Leukemia (intraperitoneal) in CD2F1 (CDF1) mice
Conditions: higher = longer survival
In short: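 Read-out first: treated-group measurement over vehicle-control measurement, expressed as a ratio. Animals bore a transplanted tumor line and were dosed with compound or vehicle.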

[1] = endpoint: mean survival time, dose: 100.0 mg/kg/injection, schedule: Q04DX003 (ip), vehicle: saline with Tween-80
[2] = endpoint: mean survival time, dose: 200.0 mg/kg/injection, schedule: Q04DX003 (ip), vehicle: saline with Tween-80
[3] = endpoint: mean survival time, dose: 100.0 mg/kg/injection, schedule: Q01DX001 (ip), vehicle: saline with Tween-80
[4] = endpoint: mean survival time, dose: 50.0 mg/kg/injection, schedule: Q01DX009 (ip), vehicle: saline with Tween-80
[5] = endpoint: mean survival time, dose: 100.0 mg/kg/injection, schedule: Q01DX009 (ip), vehicle: saline with Tween-80
[6] = endpoint: mean survival time, dose: 200.0 mg/kg/injection, schedule: Q01DX009 (ip), vehicle: saline with Tween-80
[7] = endpoint: mean survival time, dose: 400.0 mg/kg/injection, schedule: Q04DX003 (ip), vehicle: saline with Tween-80
[8] = endpoint: mean survival time, dose: 100.0 mg/kg/injection, schedule: Q01DX001 (ip), vehicle: saline
[9] = endpoint: mean survival time, dose: 200.0 mg/kg/injection, schedule: Q01DX001 (ip), vehicle: saline
[10] = endpoint: mean survival time, dose: 100.0 mg/kg/injection, schedule: Q04DX002 (ip), vehicle: saline with Tween-80

SMILES: Cc1cn(C2CC3O[P@@](=S)(Nc4ccccc4)OCC3O2)c(=O)[nH]c1=O (stereo partly drawn)
- T/C (endpoint: median survival time, dose: 11.5 mg/kg/injection, schedule: Q01DX005 (ip), vehicle: saline with Tween-80): 108 % of control
- T/C (endpoint: median survival time, dose: 23.0 mg/kg/injection, schedule: Q01DX005 (ip), vehicle: saline with Tween-80): 103 % of control
- T/C (endpoint: median survival time, dose: 46.0 mg/kg/injection, schedule: Q01DX005 (ip), vehicle: saline with Tween-80): 98 % of control

SMILES: CC1(C(Cl)(Cl)Cl)C=CC(=O)C=C1
- T/C (endpoint: mean survival time, dose: 50.0 mg/kg/injection, schedule: Q04DX003 (ip), vehicle: saline with Tween-80): 101 % of control
- T/C [1]: 101 % of control
- T/C [2]: 97 % of control

SMILES: COc1cc2c(c(OC)c1OC)-c1ccc(SC)c(=O)cc1C(N=C(NC1OCC(OC(C)=O)C(OC(C)=O)C1OC(C)=O)SN(NC(=O)OCc1ccccc1)C(=O)OCc1ccccc1)CC2 (stereo not drawn)
- T/C [3]: 92 % of control

SMILES: COc1c(C=O)c2c(c(OC)c1OC)-c1ccc(OC)c(=O)cc1[C@@H](NC(C)=O)CC2
- T/C (endpoint: median survival time, dose: 12.5 mg/kg/injection, schedule: Q01DX009 (ip), vehicle: Klucel (hydroxypropylcellulose) (HPC)): 100 % of control

SMILES: CS(=O)(=O)OC1CS(=O)(=O)Cc2ccccc21 (stereo not drawn)
- T/C (endpoint: mean survival time, dose: 100.0 mg/kg/injection, schedule: Q01DX001 (ip), vehicle: carboxymethylcellulose (CMC)): 101 % of control
- T/C (endpoint: mean survival time, dose: 200.0 mg/kg/injection, schedule: Q01DX001 (ip), vehicle: carboxymethylcellulose (CMC)): 101 % of control
- T/C (endpoint: mean survival time, dose: 400.0 mg/kg/injection, schedule: Q01DX001 (ip), vehicle: carboxymethylcellulose (CMC)): 101 % of control

SMILES: CCOC(=O)c1c(O)c2c([nH]c1=O)CCc1ccccc1-2
- T/C (endpoint: mean survival time, dose: 12.5 mg/kg/injection, schedule: Q01DX009 (ip), vehicle: saline with Tween-80): 98 % of control
- T/C (endpoint: mean survival time, dose: 25.0 mg/kg/injection, schedule: Q01DX001 (ip), vehicle: saline with Tween-80): 98 % of control
- T/C (endpoint: mean survival time, dose: 25.0 mg/kg/injection, schedule: Q01DX009 (ip), vehicle: saline with Tween-80): 95 % of control
- T/C (endpoint: mean survival time, dose: 50.0 mg/kg/injection, schedule: Q01DX001 (ip), vehicle: saline with Tween-80): 93 % of control
- T/C [4]: 95 % of control
- T/C [3]: 103 % of control

SMILES: O=c1[nH]c(=O)n(C2CC(O)C(CO)O2)cc1S (stereo not drawn)
- T/C (endpoint: mean survival time, dose: 12.5 mg/kg/injection, schedule: Q01DX005 (ip), vehicle: water): 107 % of control
- T/C (endpoint: mean survival time, dose: 25.0 mg/kg/injection, schedule: Q01DX005 (ip), vehicle: water): 117 % of control
- T/C (endpoint: mean survival time, dose: 50.0 mg/kg/injection, schedule: Q01DX005 (ip), vehicle: water): 112 % of control
- T/C (endpoint: mean survival time, dose: 100.0 mg/kg/injection, schedule: Q01DX005 (ip), vehicle: water): 122 % of control
- T/C (endpoint: mean survival time, dose: 133.0 mg/kg/injection, schedule: Q01DX005 (ip), vehicle: water): 121 % of control
- T/C (endpoint: mean survival time, dose: 200.0 mg/kg/injection, schedule: Q01DX005 (ip), vehicle: water): 111 % of control
- T/C (endpoint: mean survival time, dose: 300.0 mg/kg/injection, schedule: Q01DX005 (ip), vehicle: water): 115 % of control

SMILES: Cc1cc(O)c(C)c(C)c1Cl
- T/C [4]: 102 % of control
- T/C [5]: 104 % of control
- T/C [1]: 94 % of control
- T/C [6]: 91 % of control
- T/C [2]: 98 % of control

SMILES: COC(=O)CCNc1ccccc1
- T/C (endpoint: mean survival time, dose: 100.0 mg/kg/injection, schedule: Q01DX001 (ip), vehicle: Klucel (hydroxypropylcellulose) (HPC)): 101 % of control
- T/C [1]: 100 % of control
- T/C (endpoint: mean survival time, dose: 200.0 mg/kg/injection, schedule: Q01DX001 (ip), vehicle: Klucel (hydroxypropylcellulose) (HPC)): 101 % of control
- T/C [2]: 96 % of control
- T/C (endpoint: mean survival time, dose: 400.0 mg/kg/injection, schedule: Q01DX001 (ip), vehicle: Klucel (hydroxypropylcellulose) (HPC)): 96 % of control
- T/C [7]: 96 % of control

SMILES: O=C(SC1=NCCN1)c1ccccc1
- T/C [8]: 94 % of control
- T/C [9]: 102 % of control

SMILES: O=C(NCCCN1CCOCC1)c1ccc(C(=O)NCCCN2CCOCC2)cc1
- T/C [8]: 95 % of control
- T/C [9]: 98 % of control
- T/C (endpoint: mean survival time, dose: 400.0 mg/kg/injection, schedule: Q01DX001 (ip), vehicle: saline): 101 % of control

SMILES: CC1C=CC(=O)O1 (stereo not drawn)
- T/C (endpoint: mean survival time, dose: 50.0 mg/kg/injection, schedule: Q04DX002 (ip), vehicle: saline with Tween-80): 100 % of control
- T/C [10]: 103 % of control

SMILES: CC1(C)CC2(OC2c2ccc([N+](=O)[O-])cc2)C(=O)c2ccccc21 (stereo not drawn)
- T/C (endpoint: mean survival time, dose: 12.5 mg/kg/injection, schedule: Q01DX009 (ip), vehicle: Klucel (hydroxypropylcellulose) (HPC)): 93 % of control
- T/C (endpoint: mean survival time, dose: 25.0 mg/kg/injection, schedule: Q01DX009 (ip), vehicle: Klucel (hydroxypropylcellulose) (HPC)): 94 % of control
- T/C (endpoint: mean survival time, dose: 50.0 mg/kg/injection, schedule: Q01DX009 (ip), vehicle: Klucel (hydroxypropylcellulose) (HPC)): 98 % of control
- T/C [4]: 93 % of control
- T/C (endpoint: mean survival time, dose: 100.0 mg/kg/injection, schedule: Q01DX009 (ip), vehicle: Klucel (hydroxypropylcellulose) (HPC)): 100 % of control
- T/C [5]: 93 % of control
- T/C [1]: 89 % of control
- T/C (endpoint: mean survival time, dose: 200.0 mg/kg/injection, schedule: Q01DX009 (ip), vehicle: Klucel (hydroxypropylcellulose) (HPC)): 100 % of control
- T/C [6]: 96 % of control
- T/C [2]: 88 % of control
- T/C (endpoint: mean survival time, dose: 400.0 mg/kg/injection, schedule: Q01DX009 (ip), vehicle: Klucel (hydroxypropylcellulose) (HPC)): 96 % of control

SMILES: S=C1NCCS1
- T/C (endpoint: mean survival time, dose: 75.0 mg/kg/injection, schedule: Q01DX009 (ip), vehicle: Klucel (hydroxypropylcellulose) (HPC)): 95 % of control
- T/C (endpoint: mean survival time, dose: 150.0 mg/kg/injection, schedule: Q01DX009 (ip), vehicle: Klucel (hydroxypropylcellulose) (HPC)): 96 % of control
- T/C (endpoint: mean survival time, dose: 300.0 mg/kg/injection, schedule: Q01DX009 (ip), vehicle: Klucel (hydroxypropylcellulose) (HPC)): 101 % of control

SMILES: NC(=S)N/N=C/c1ccc(OC(=O)COc2ccc(Cl)cc2)cn1
- T/C (endpoint: mean survival time, dose: 88.0 mg/kg/injection, schedule: Q01DX009 (ip), vehicle: saline with Tween-80): 173 % of control
- T/C [10]: 103 % of control and 111 % of control
- T/C (endpoint: mean survival time, dose: 118.0 mg/kg/injection, schedule: Q01DX001 (ip), vehicle: saline with Tween-80): 109 % of control
- T/C (endpoint: mean survival time, dose: 118.0 mg/kg/injection, schedule: Q04DX003 (ip), vehicle: saline with Tween-80): 150 % of control
- T/C (endpoint: mean survival time, dose: 132.0 mg/kg/injection, schedule: Q01DX009 (ip), vehicle: saline with Tween-80): 214 % of control
- T/C (endpoint: mean survival time, dose: 178.0 mg/kg/injection, schedule: Q01DX001 (ip), vehicle: saline with Tween-80): 118 % of control
- T/C (endpoint: mean survival time, dose: 178.0 mg/kg/injection, schedule: Q04DX003 (ip), vehicle: saline with Tween-80): 166 % of control
- T/C (endpoint: mean survival time, dose: 200.0 mg/kg/injection, schedule: Q04DX002 (ip), vehicle: saline with Tween-80): 114 % of control
- T/C (endpoint: mean survival time, dose: 266.0 mg/kg/injection, schedule: Q01DX001 (ip), vehicle: saline with Tween-80): 123 % of control
- T/C (endpoint: mean survival time, dose: 266.0 mg/kg/injection, schedule: Q04DX003 (ip), vehicle: saline with Tween-80): 170 % of control
- T/C (endpoint: mean survival time, dose: 300.0 mg/kg/injection, schedule: Q01DX009 (ip), vehicle: saline with Tween-80): 93 % of control
- T/C [7]: 181 % of control
- T/C (endpoint: mean survival time, dose: 600.0 mg/kg/injection, schedule: Q04DX003 (ip), vehicle: saline with Tween-80): 150 % of control
- T/C (endpoint: median survival time, dose: 25.0 mg/kg/injection, schedule: Q01DX009 (ip), vehicle: saline with Tween-80): 164 % of control
- T/C (endpoint: median survival time, dose: 50.0 mg/kg/injection, schedule: Q01DX009 (ip), vehicle: saline with Tween-80): 188 % of control
- T/C (endpoint: median survival time, dose: 50.0 mg/kg/injection, schedule: Q01DX009 (ip), vehicle: saline): 172 % of control
- T/C (endpoint: median survival time, dose: 88.0 mg/kg/injection, schedule: Q01DX009 (ip), vehicle: saline with Tween-80): 178 % of control
- T/C (endpoint: median survival time, dose: 100.0 mg/kg/injection, schedule: Q01DX009 (ip), vehicle: saline with Tween-80): 175 % of control and 180 % of control
- T/C (endpoint: median survival time, dose: 100.0 mg/kg/injection, schedule: Q01DX009 (ip), vehicle: saline): 209 % of control
- T/C (endpoint: median survival time, dose: 133.0 mg/kg/injection, schedule: Q01DX009 (ip), vehicle: saline with Tween-80): 178 % of control
- T/C (endpoint: median survival time, dose: 200.0 mg/kg/injection, schedule: Q01DX009 (ip), vehicle: saline with Tween-80): 182 % of control and 184 % of control and 213 % of control
- T/C (endpoint: median survival time, dose: 200.0 mg/kg/injection, schedule: Q01DX009 (ip), vehicle: saline): 172 % of control
- T/C (endpoint: median survival time, dose: 300.0 mg/kg/injection, schedule: Q01DX009 (ip), vehicle: saline with Tween-80): 102 % of control
- T/C (endpoint: median survival time, dose: 400.0 mg/kg/injection, schedule: Q01DX009 (ip), vehicle: saline with Tween-80): 108 % of control
- T/C (endpoint: median survival time, dose: 400.0 mg/kg/injection, schedule: Q01DX009 (ip), vehicle: saline): 97 % of control

SMILES: COc1cc([N+](=O)[O-])c2nc(/C=N/NC(N)=S)ccc2c1
- T/C [8]: 89 % of control

SMILES: O=C1c2cccc3cccc(c23)C(=O)N1Cc1ccccc1
- T/C [1]: 98 % of control
- T/C [2]: 87 % of control
- T/C [7]: 91 % of control

SMILES: COC(=O)c1ccccc1NC(=O)CCl
- T/C [4]: 96 % of control
- T/C [5]: 98 % of control
- T/C [6]: 94 % of control
